Data taken from patent US20190240344A1, “FUNCTIONAL RNA AND SMALL-MOLECULE DRUG THERAPEUTIC COMPLEXES AND NANOPARTICLE DELIVERY VEHICLES” (EOS BIOSCIENCES, INC., priority 2016, published 2019).

Tests used:
[1] = tested on: JIMT1 cells (trastuzumb-resistant human breast cancer); experiment: Cell viability of JIMT1 cells after transfection (Celltiter Glo, ATP); assay type: cell-based; settings: three doses, 24, 48, 72 hours, RNAiMax lipofectamine carrier (doxorubicin alone without lipofectamine)
Procedure: (§1) To measure the effect of the complexes on cell viability, the formed complexes were transfected into JIMT1 cells (trastuzumb-resistant human breast cancer). Approximately 10,000 cells per well were plated in 96-well plates, maintained in RPMI 1640 medium with 100% fetal bovine serum, 100 U/mL penicillin, 100 μg/mL streptomycin at 37° C. under 5% CO2. After 24 hours, the culture media was replaced with Opti-MEM I reduced serum medium (Invitrogen Life Technologies). RNAiMax lipofectamine (Invitrogen Life Technologies) was used as a carrier for siRNA, Dox:siRNA complexes, and the Dox:DNA oligo complex delivery. Doxorubicin was administered to the control sample without the lipofectamine. Three hours following transfection, the medium in each sample was replaced with complete culture media. After 24, 48, or 72 hours, relative cell viability was determined by quantifying ATP using Celltiter Glo Luminescent Cell Viability Kit (Promega), according to the manufacturer's instructions. Experiments were conducted in triplicate. Results are shown in FIG. 5A (24 hours), 5B (48 hours), and SC (72 hours).

[2] = tested on: 4T1-Fluc-Neo/eGFP-Puro cells (mouse mammary carcinoma cells); experiment: Cell viability of 4T1-Fluc-Neo/eGFP-Puro cells after transfection (Celltiter Glo, ATP); assay type: cell-based; settings: three doses, 24 hours, RNAiMax lipofectamine carrier (doxorubicin alone without lipofectamine)
Procedure: as §1, with “4T1-Fluc-Neo/eGFP-Puro” for “JIMT1”, “(mouse mammary carcinoma cells stably expressing FLuc and eGFP).” for “(trastuzumb-resistant human breast cancer).”, “[…],” for “100%”, “siScrm2, dox:siScrm2, siRNA3, or dox:siRNA3” for “siRNA, Dox:siRNA complexes, and the Dox:DNA oligo complex”, “24” for “24, 48, or 72”, “triplicate.” for “triplicate. Results are shown in FIG. 5A (24 hours), 5B (48 hours), and SC (72 hours).”

COc1cccc2c1C(=O)c1c(O)c3c(c(O)c1C2=O)C[C@@](O)(C(=O)CO)C[C@@H]3O[C@H]1C[C@H](N)[C@H](O)[C@H](C)O1 [doxorubicin]
relative cell viability [1]: dose-dependent decrease in cell viability
relative cell viability [2]: dose-dependent decrease in cell viability
